# Assay results published in ChEMBL document CHEMBL1201862, “PubChem BioAssay data set” (2004).
#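 Grown in 96-well plates, cells were treated for 48 hours with each compound at five concentrations. Insufficient inhibition: endpoint recorded as highest concentration tested. GI50 is the concentration that inhibits growth by half.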 The source made the active and inactive calls. Cut-off read from the data, not from the text of the source: active = GI50 up to about 1.1 µM and inactive = higher.
# Assays:
# Assay in all cases: growth of human tumour cells (NCI), 48 h
# 786-0 = system: 786-0
# A498 = system: A498
# A549 = system: A549
# ACHN = system: ACHN
# BT-549 = system: BT-549
# CAKI-1 = system: CAKI-1
# CCRF-CEM = system: CCRF-CEM
# COLO 205 = system: COLO 205
# DU-145 = system: DU-145
# EKVX = system: EKVX
# HCC 2998 = system: HCC 2998
# HCT-116 = system: HCT-116
# HCT-15 = system: HCT-15
# HL-60 = system: HL-60
# HOP-62 = system: HOP-62
# HOP-92 = system: HOP-92
# HT-29 = system: HT-29
# Hs-578T = system: Hs-578T
# IGROV-1 = system: IGROV-1
# K562 = system: K562
# KM12 = system: KM12
# LOX IMVI = system: LOX IMVI
# M14 = system: M14
# MCF7 = system: MCF7
# MDA-MB-231 = system: MDA-MB-231
# MDA-MB-435 = system: MDA-MB-435
# MDA-N = system: MDA-N
# Malme-3M = system: Malme-3M
# NCI-H226 = system: NCI-H226
# NCI-H23 = system: NCI-H23
# NCI-H460 = system: NCI-H460
# NCI-H522 = system: NCI-H522
# NCI/ADR-RES = system: NCI/ADR-RES
# OVCAR-3 = system: OVCAR-3
# OVCAR-4 = system: OVCAR-4
# OVCAR-5 = system: OVCAR-5
# OVCAR-8 = system: OVCAR-8
# PC-3 = system: PC-3
# RPMI-8226 = system: RPMI-8226
# RXF 393 = system: RXF 393
# SF-268 = system: SF-268
# SF-295 = system: SF-295
# SF-539 = system: SF-539
# SK-MEL-28 = system: SK-MEL-28
# SK-MEL-2 = system: SK-MEL-2
# SK-MEL-5 = system: SK-MEL-5
# SK-OV-3 = system: SK-OV-3
# SN12C = system: SN12C
# SNB-19 = system: SNB-19
# SNB-75 = system: SNB-75
# SW-620 = system: SW-620
# T47D = system: T47D
# TK-10 = system: TK-10
# U-251 = system: U-251
# UACC-257 = system: UACC-257
# UACC-62 = system: UACC-62
# UO-31 = system: UO-31
# MOLT-4 = system: MOLT-4
structure (smiles),measurement,setting,value
Cc1csc2nc(-c3ccc([N+](=O)[O-])cc3)c(/C=N/N=C(N)N)n12,GI50,786-0,1.94 µM (inactive)
same,GI50,A498,1.82 µM (inactive)
same,GI50,A549,1.84 µM (inactive)
same,GI50,ACHN,1.28 µM (inactive)
same,GI50,BT-549,0.189 µM (active)
same,GI50,CAKI-1,4.73 µM (inactive)
same,GI50,CCRF-CEM,1.91 µM (inactive)
same,GI50,COLO 205,1.53 µM (inactive)
same,GI50,DU-145,2.21 µM (inactive)
same,GI50,EKVX,1.39 µM (inactive)
same,GI50,HCC 2998,< 10 nM (active)
same,GI50,HCT-116,1.81 µM (inactive)
same,GI50,HCT-15,0.791 µM
same,GI50,HL-60,1.85 µM (inactive)
same,GI50,HOP-62,1.7 µM (inactive)
same,GI50,HOP-92,< 0.01 µM (active)
same,GI50,HT-29,1.76 µM (inactive)
same,GI50,Hs-578T,2.09 µM (inactive)
same,GI50,IGROV-1,1.44 µM (inactive)
same,GI50,K562,1.81 µM (inactive)
same,GI50,KM12,1.7 µM (inactive)
same,GI50,LOX IMVI,1.9 µM (inactive)
same,GI50,M14,1.85 µM (inactive)
same,GI50,MCF7,1.61 µM (inactive)
same,GI50,MDA-MB-231,1.76 µM (inactive)
same,GI50,MDA-MB-435,1.64 µM (inactive)
same,GI50,MDA-N,1.8 µM (inactive)
same,GI50,Malme-3M,1.53 µM (inactive)
same,GI50,NCI-H226,1.73 µM (inactive)
same,GI50,NCI-H23,1.64 µM (inactive)
same,GI50,NCI-H460,1.79 µM (inactive)
same,GI50,NCI-H522,1.63 µM (inactive)
same,GI50,NCI/ADR-RES,6.89 µM (inactive)
same,GI50,OVCAR-3,2.49 µM (inactive)
same,GI50,OVCAR-4,1.53 µM (inactive)
same,GI50,OVCAR-5,1.52 µM (inactive)
same,GI50,OVCAR-8,0.716 µM (active)
same,GI50,PC-3,1.69 µM (inactive)
same,GI50,RPMI-8226,2.05 µM (inactive)
same,GI50,RXF 393,1.79 µM (inactive)
same,GI50,SF-268,1.68 µM (inactive)
same,GI50,SF-295,1.74 µM (inactive)
same,GI50,SF-539,1.85 µM (inactive)
same,GI50,SK-MEL-28,1.74 µM (inactive)
same,GI50,SK-MEL-2,1.43 µM (inactive)
same,GI50,SK-MEL-5,1.91 µM (inactive)
same,GI50,SK-OV-3,1.69 µM (inactive)
same,GI50,SN12C,1.71 µM (inactive)
same,GI50,SNB-19,1.92 µM (inactive)
same,GI50,SNB-75,1.58 µM (inactive)
same,GI50,SW-620,1.94 µM (inactive)
same,GI50,T47D,2.79 µM (inactive)
same,GI50,TK-10,1.92 µM (inactive)
same,GI50,U-251,1.8 µM (inactive)
same,GI50,UACC-257,1.91 µM (inactive)
same,GI50,UACC-62,1.71 µM (inactive)
same,GI50,UO-31,1.49 µM (inactive)
Cc1nc2c(c(N3CCN(C)CC3)n1)Cc1ccccc1-2,GI50,786-0,68.2 µM (inactive)
same,GI50,A549,44.2 µM (inactive)
same,GI50,ACHN,34.2 µM (inactive)
same,GI50,BT-549,24.3 µM (inactive)
same,GI50,CAKI-1,17.1 µM (inactive)
same,GI50,CCRF-CEM,65.2 µM (inactive)
same,GI50,COLO 205,37.3 µM (inactive)
same,GI50,DU-145,> 100 µM (inactive)
same,GI50,EKVX,42.4 µM (inactive)
same,GI50,HCT-116,46.5 µM (inactive)
same,GI50,HCT-15,32.5 µM
same,GI50,HL-60,42.1 µM (inactive)
same,GI50,HOP-92,36.7 µM (inactive)
same,GI50,HT-29,44.1 µM (inactive)
same,GI50,Hs-578T,65 µM (inactive)
same,GI50,K562,34.6 µM (inactive)
same,GI50,KM12,48 µM (inactive)
same,GI50,M14,50.9 µM (inactive)
same,GI50,MCF7,70.3 µM (inactive)
same,GI50,MDA-MB-231,37.8 µM (inactive)
same,GI50,MDA-MB-435,64.7 µM (inactive)
same,GI50,MDA-N,58.5 µM (inactive)
same,GI50,MOLT-4,> 10 µM (inactive)
same,GI50,Malme-3M,40.8 µM (inactive)
same,GI50,NCI-H226,45.8 µM (inactive)
same,GI50,NCI-H23,57.8 µM (inactive)
same,GI50,NCI-H460,18.8 µM (inactive)
same,GI50,NCI-H522,16.9 µM (inactive)
same,GI50,NCI/ADR-RES,49.5 µM (inactive)
same,GI50,OVCAR-5,80.7 µM (inactive)
same,GI50,OVCAR-8,54 µM (inactive)
same,GI50,PC-3,58.7 µM (inactive)
same,GI50,RPMI-8226,> 100 µM (inactive)
same,GI50,RXF 393,> 100 µM (inactive)
same,GI50,SF-268,62.4 µM (inactive)
same,GI50,SF-295,42.4 µM (inactive)
same,GI50,SF-539,84.7 µM (inactive)
same,GI50,SK-MEL-2,75.5 µM (inactive)
same,GI50,SK-MEL-5,51.2 µM (inactive)
same,GI50,SK-OV-3,> 100 µM (inactive)
same,GI50,SNB-19,24.9 µM (inactive)
same,GI50,SNB-75,91.2 µM (inactive)
same,GI50,SW-620,31 µM (inactive)
same,GI50,T47D,> 100 µM (inactive)
same,GI50,TK-10,31.4 µM (inactive)
same,GI50,U-251,75.3 µM (inactive)
same,GI50,UACC-257,57 µM (inactive)
same,GI50,UACC-62,42.6 µM (inactive)
same,GI50,UO-31,15 µM (inactive)
COc1ccc(C(=O)C(Br)C(Br)C(=O)O)cc1 (stereo not given),GI50,786-0,31.8 µM (inactive)
same,GI50,A498,> 100 µM (inactive)
same,GI50,A549,66.5 µM (inactive)
same,GI50,ACHN,44.2 µM (inactive)
same,GI50,BT-549,26.5 µM (inactive)
same,GI50,CAKI-1,38.3 µM (inactive)
same,GI50,COLO 205,21.9 µM (inactive)
same,GI50,DU-145,80.2 µM (inactive)
same,GI50,EKVX,53.6 µM (inactive)
same,GI50,HCT-116,20.8 µM (inactive)
same,GI50,HCT-15,37.5 µM
same,GI50,HOP-62,36.6 µM (inactive)
same,GI50,HOP-92,> 100 µM (inactive)
same,GI50,HT-29,15.6 µM (inactive)
same,GI50,Hs-578T,35.2 µM (inactive)
same,GI50,IGROV-1,51.1 µM (inactive)
same,GI50,K562,29 µM (inactive)
same,GI50,KM12,52.1 µM (inactive)
same,GI50,LOX IMVI,21 µM (inactive)
same,GI50,M14,54.1 µM (inactive)
same,GI50,MCF7,35.8 µM (inactive)
same,GI50,MDA-MB-231,> 100 µM (inactive)
same,GI50,MDA-MB-435,36.1 µM (inactive)
same,GI50,MDA-N,38.1 µM (inactive)
same,GI50,MOLT-4,14 µM (inactive)
same,GI50,Malme-3M,21.4 µM (inactive)
same,GI50,NCI-H226,> 100 µM (inactive)
same,GI50,NCI-H23,39.4 µM (inactive)
same,GI50,NCI-H460,36.3 µM (inactive)
same,GI50,NCI-H522,16.7 µM (inactive)
same,GI50,NCI/ADR-RES,30.1 µM (inactive)
same,GI50,OVCAR-3,28.3 µM (inactive)
same,GI50,OVCAR-4,53 µM (inactive)
same,GI50,OVCAR-5,32.7 µM (inactive)
same,GI50,OVCAR-8,32.7 µM (inactive)
same,GI50,PC-3,56.5 µM (inactive)
same,GI50,RPMI-8226,20.4 µM (inactive)
same,GI50,RXF 393,24.2 µM (inactive)
same,GI50,SF-268,32.8 µM (inactive)
same,GI50,SF-295,> 100 µM (inactive)
same,GI50,SF-539,21.4 µM (inactive)
same,GI50,SK-MEL-28,40.4 µM (inactive)
same,GI50,SK-MEL-2,39 µM (inactive)
same,GI50,SK-MEL-5,> 100 µM (inactive)
same,GI50,SK-OV-3,33.7 µM (inactive)
same,GI50,SN12C,47.2 µM (inactive)
same,GI50,SNB-19,83.8 µM (inactive)
same,GI50,SNB-75,67.3 µM (inactive)
same,GI50,SW-620,23.3 µM (inactive)
same,GI50,T47D,33.1 µM (inactive)
same,GI50,TK-10,90.2 µM (inactive)
same,GI50,U-251,35.3 µM (inactive)
same,GI50,UACC-257,> 100 µM (inactive)
same,GI50,UACC-62,47.9 µM (inactive)
